Data set [1] concerns Escherichia coli (strain ATCC 25922). Put plainly: Initial screening: growth inhibition after white light illumination. Format: cell-based. As to conditions: Escherichia coli. Here is the method:
(§1) The toxic effects of exemplary compounds of the invention against two bacterial strains, the Gram negative bacterium Escherichia coli (strain ATCC 25922) and the Gram positive bacterium Staphylococcus aureus (methicillin-resistant strain ATTC BAA-44), were evaluated by measuring the extent of growth inhibition (bacteriostatic effect) and growth […] (cytocidal effect) in the dark and upon light exposure. Initial compound screening was undertaken using white light [390-740 nm] (150 mW/cm^2) for various timepoints of a concentration of 3 μM (see Table 1). Further experiments were undertaken on those compounds identified from this initial screen using a light source emitting light at a wavelength between 417-420 nm at 15.2 mW/cm^2, 13.68 J/cm^2 (Waldmann Eclairage SA, France) (see Table 20.
(§2) The following protocol was used for the initial screening of the exemplary compounds (Table 1) (see Reddi et al., 2002, Photochem. Photobiol. 75(5):462-470): • (i) E. coli and S. aureus cells were grown overnight on brain heart infusion agar, resuspended in brain heart infusion broth, harvested by centrifugation (3000 g for 15 minutes) and washed once with phosphate buffered saline (PBS) at pH 7.4 consisting 2.7 mM KCl and 0.14 M NaCl. • (ii) The cells were then resuspended in PBS to an optical density at 650 nm of 0.7, which corresponds to a density of 10^8 to 10^9 cells/ml. • (iii) Next, the cells were incubated in PBS in the dark for 5 minutes with 3.0 μM of the compound to be tested. • (iv) After dark incubation, cells were illuminated with white light (wavelength: 390 to 740 nm) (150 mW/cm^2) for up to 30 minutes. During illumination, the cells were kept at 37° C. and magnetically stirred. • (v) Finally, treated and untreated (control) cells were diluted in brain heart infusion broth and maintained at […] while the absorbance of the suspension at 650 nm was monitored at predetermined time points for determining growth curves.
(§3) The percent of growth inhibition in the treated cells was calculated by the following equation: [1−(Ax−A0)/(Ac−A0)]×100 where Ax Ac are the absorbances measured after 3 hours incubation, for the treated and control cell suspensions, respectively, and A0 represents the initial absorbance.

In data set [2] the test system is Staphylococcus aureus (methicillin-resistant strain ATTC BAA-44). Described as above. The note with it: Staphylococcus aureus. Format: cell-based. How it is done: as §1, §2, §3
A further data set has as its system S. aureus ATCC BAA-44. As to the kind of experiment: Photodynamic activity against MRSA on ex vivo porcine skin. As to conditions: 10 μM applied 10 minutes, 15 minutes irradiation, mean of three target areas. The class given is cell-based, Staphylococcus aureus. How it is done:
Excised porcine skin was cut into 3(4)×3(4) cm^2 pieces under sterile conditions and incubated in 70% ethanol for 5 minutes to reduce background of colonised bacteria. After three washing steps in PBS, the skin pieces were fixed in petri dishes with Hepes-Agar. The epidermis (stratum corneum) was then inoculated with S. aureus ATCC BAA-44 (˜10^8, Volume: 100 μl) and the skin surface dried under laminar flow cabinet until visible dry. The regions of interest were determined using a “pap” pen (1 cm^2 diameter). A sterile solution of Compound 10 (10 μM) was applied onto the skin for 10 minutes. Post application, the ex vivo porcine skin was placed under the Waldmann light source 236 and illuminated for 15 min (15.2 mW/cm^2, 13.7 J/cm^2). A colony forming unit assay was performed to determine viable bacterial cell number immediately after irradiation using a sterile cotton rod to remove bacteria from the stratum corneum. The sterile cotton rod was moistened in sampling solution (0.1% Tween80 in 0.0075 M phosphate buffer pH 7.9) before swabbing the skin surface (3 times) and vortexed in sampling solution before undertaking serial dilutions to determine the bacterial recovery.

The test system of data set [3] is intact and abraded rat skin. As to the kind of experiment: Acute dermal toxicity test (OECD 402). Format: in vivo. As to conditions: 3.2 mM topical formulation, 24 hours. How it is done:
The compound was applied to both intact and abraded rat skin for 24 hours.

Data set [4] relates to Guinea Pig skin (intact and abraded). Put plainly: Photo-toxicity test (OECD 406 based). Format: in vivo. Here is the method: Clinical and histological examination of the skin test sites was conducted at 24 and 72 hours post illumination in classical photo-toxicity testing fashion. Biopsies were not done from contiguous sites to prevent any interaction in case of suture. Gross findings were evaluated at the moment of the biopsy. Before giving a score to each endpoint (erythema, oedema and inflammation), data for each subject were compared to the data from the other animals and to control data. A score from 0 to 4 was given for each site and for each endpoint according to the Draize Scale (for inflammation, a scale similar to the Draize Scale was created after microscopic observation of all skin sections, comparing with normal skin and with findings of step-1). A mean score was then calculated for each animal and for each sampling point.

Data set [5] is described as follows: Photostability (photobleaching). Format: physicochemical. As to conditions: 30 minutes illumination. From the text:
A bespoke light source capable of delivering light of an appropriate wavelength (417 nm) was developed to activate the test compounds (Waldmann light source 236). […] It consists of a light box (493 mm length×278 mm width×93.3 mm height) where the samples to be tested are placed on the top surface of the light box and illuminated from below.
The photostability of the exemplary compounds was investigated using standard photodynamic procedures. […] The solution was illuminated for various periods: 10, 20 and 30 minutes. After each predetermined illumination period, the absorbance at 404 nm corresponding to the maximum absorption peak of the compound was measured. Parallel experiments were undertaken where the absorbance of Compound 10 solutions that had been kept in the dark for the same time periods as the illumination time periods were measured. Over the 30 minutes period of illumination a small loss in the absorbance value at 404 nm was observed (see FIG. 10A).
The susceptibility of the Compound 10 to photobleaching when subjected to a light at a higher fluence rate (150 mW/cm^2; i.e. ten times that used normally) was investigated. With this illumination system, the solution was kept in a quartz cuvette during illumination while an equivalent solution was kept in the dark.

Read-outs that look alike come from different tables or passages of the source.

As usually defined, the inhibition is the drop in the measured response relative to a control, in per cent.

`CN(C)CCC[N+](C)(C)CCCOc1ccc(-c2c3nc(cc4ccc([nH]4)c(-c4ccc(OCCC[N+](C)(C)CCCN(C)C)cc4)c4nc(cc5ccc2[nH]5)C=C4)C=C3)cc1.[Cl-].[Cl-]` [Compound 8, 5,15-bis-(4-{3-[(3-Dimethylamino-propyl)-dimethylammonio]-propyloxy}-phenyl)-porphyrin dichloride]: the inhibition at 3 µM in data set [1] (ATCC25922, 5 min, read-out: Growth inhibition (%), E. coli, 5 min incubation, illumination time 5 min) was determined as 100%; in data set [1] (ATCC25922, read-out: Growth inhibition (%), E. coli, 5 min incubation, illumination time 0 min), 23%; in data set [1] (ATCC25922, read-out: Growth inhibition (%), E. coli, 5 min incubation, illumination time 1 min), 69%; in data set [1] (ATCC25922, read-out: Growth inhibition (%), E. coli, 5 min incubation, illumination time 10 min), 100%; in data set [1] (ATCC25922, read-out: Growth inhibition (%), E. coli, 5 min incubation, illumination time 15 min), 100%; in data set [1] (ATCC25922, read-out: Growth inhibition (%), E. coli, 5 min incubation, illumination time 30 min), 100%. In addition, the inhibition at 3 µM in data set [2] (BAA44, 5 min, read-out: Growth inhibition (%), S. aureus, 5 min incubation, illumination time 5 min) came out at 100%; in data set [2] (BAA44, read-out: Growth inhibition (%), S. aureus, 5 min incubation, illumination time 0 min), 80%; in data set [2] (BAA44, read-out: Growth inhibition (%), S. aureus, 5 min incubation, illumination time 1 min), 99%; in data set [2] (BAA44, read-out: Growth inhibition (%), S. aureus, 5 min incubation, illumination time 10 min), 100%; in data set [2] (BAA44, read-out: Growth inhibition (%), S. aureus, 5 min incubation, illumination time 15 min), 100%; in data set [2] (BAA44, read-out: Growth inhibition (%), S. aureus, 5 min incubation, illumination time 30 min) it was 100%.
For the molecule `C[N+](C)(C)CCCOc1ccc(-c2c3nc(cc4ccc([nH]4)c(-c4ccc(OCCC[N+](C)(C)C)cc4)c4nc(cc5ccc2[nH]5)C=C4)C=C3)cc1.[Cl-].[Cl-]` [Compound 10, 5,15-bis-[4-(3-Trimethylammonio-propyloxy)-phenyl]-porphyrin dichloride], the growth reduction in the data set with S. aureus ATCC BAA-44 turned out to be 3.2 log10. Moreover, in data set [3], the Histological toxicology result was “No Histological toxicology of any major organ (including the skin) was observed”, the “acute toxic or allergic effect” value is recorded as “does not result in any acute toxic or allergic effect” and the clinical toxicology entry is given as “no clinical toxicology was observed”. The photo-toxic potential entry in data set [4] (32 μM topical formulation, 24 hours on intact and abraded skin, then 30 minute light exposure, examined 24 and 72 hours post illumination) is “no clinical signs or symptoms or histological findings that suggested any photo-toxic potential”. Also, in data set [4] (32 μM, in the absence of light), the “damage to the surface of the skin” value is recorded as “did not result in any damage to the surface of the skin”. In addition, the “loss in the absorbance value at 404 nm” value in data set [5] (10 μM in phosphate-buffered saline/ethanol, blue light 15 mW/cm^2) is reported as “small loss”. Moreover, in data set [5] (10 μM, 150 mW/cm^2), the “reduction of absorbance caused by photobleaching” value was 15-20%.

(Values after patent US8084602B2, “Porphyrin derivatives and their use in photodynamic therapy” (Destiny Pharma Limited, priority 2002, dated 2011).)
